Literature values, collected in patent US5739112A, “Inhibitors of factor Xa” (Corvas International, Inc., priority 1995, dated 1998).

Key:
Conditions in all cases: Turner et al., p. 4932; cited from earlier work
[1] = target: T1, Human factor Xa (Homo sapiens, UniProt P00742)
T1 construct: Human factor X contains a light-chain subunit containing 139 amino acid residues; purchased Enzyme Research Laboratories

[2] = test system: Human factor XIa
[3] = target: human thrombin (Homo sapiens, UniProt P00734)

T1 sequence (P00742 235-488 limits assumed): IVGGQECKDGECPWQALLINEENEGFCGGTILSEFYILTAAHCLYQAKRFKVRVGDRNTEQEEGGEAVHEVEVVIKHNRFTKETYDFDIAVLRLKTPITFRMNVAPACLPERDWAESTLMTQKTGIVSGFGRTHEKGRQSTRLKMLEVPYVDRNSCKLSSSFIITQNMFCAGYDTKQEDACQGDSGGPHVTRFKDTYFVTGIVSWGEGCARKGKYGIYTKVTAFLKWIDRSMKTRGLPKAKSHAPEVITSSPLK
T1 sequence (P00742 41-179 partner limits assumed): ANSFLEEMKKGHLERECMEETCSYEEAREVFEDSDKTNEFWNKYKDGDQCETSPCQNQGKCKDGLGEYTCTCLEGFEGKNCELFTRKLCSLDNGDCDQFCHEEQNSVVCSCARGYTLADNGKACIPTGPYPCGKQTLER

SMILES: CC(=Cc1ccccc1)C(=O)Oc1ccc(C(=N)N)cc1 [p-Amidinophenyl α-methylcinnamate]
- second-order rate constant of inactivation, human factor Xa [1]: 1650 M⁻¹ s⁻¹
- second-order rate constant of inactivation, human factor XIa [2]: 2670 M⁻¹ s⁻¹
- second-order rate constant of inactivation, human thrombin [3]: 2670 M⁻¹ s⁻¹
